pEC50: −log10 of the molar value.
The compounds below were run on HBV (assay: HepAD38 antiviral assay: reduction of viral product accumulation (virion DNA by qPCR, HBsAg or HBeAg by ELISA)). Settings: Hepatitis B virus, HePAD38, 120 h, HepAD38 cells, five days after compound addition; concentration reducing viral product accumulation by 50% relative to no drug controls; read-out: HepAD38 EC50.
Type: cell-based, hepatitis B virus
How it was run: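 EC50 values represent 50% reduction of viral product accumulation in lysates or supernatants relative to untreated controls, with virion DNA read by qPCR and HBsAg/HBeAg by ELISA. Measurements followed 5 days of treatment, or 8 days with compound renewed on d2 and d5. Cells were tetracycline-depleted HepAD38 at 35,000/well, dosed with a 1:200 dilution of DMSO stocks.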
In the case of `CCOC(=O)C(C)S(=O)(=O)c1cc(C(=O)Nc2cc(F)c(F)c(F)c2)ccc1Cl` (centres unmarked) [Example 94], the pEC50 was less than 6.40.
Compound `CC(C)(C)[Si](C)(C)O[C@H]1C2CCC1C[C@@H](S(=O)(=O)c1cc(C(=O)Nc3cc(F)c(F)c(F)c3)ccc1Cl)C2` [Example 195] has a pEC50 of less than 6.40.
Compound `O=C1CC(S(=O)(=O)c2cc(C(=O)Nc3cc(F)c(F)c(F)c3)ccc2Cl)C1` [Example 33] has a pEC50 of less than 6.40.
`CC(C)(C)OC(=O)N[C@H]1CC[C@H]([S+]([O-])c2cc(C(=O)Nc3cc(F)c(F)c(F)c3)ccc2Cl)CC1` (some centres unmarked) [Example 55] gave a pEC50 of less than 6.40.
`O=C(Nc1cc(F)c(F)c(F)c1)c1ccc(Cl)c(S(=O)(=O)[C@H]2CC3CCC(C2)[C@H]3O)c1` [Example 183] showed a pEC50 of 6.40 to 7.00.
`O=C(O)/C=C/[C@]1(O)CC2CC[C@@H](C1)[C@H]2S(=O)(=O)c1cc(C(=O)Nc2cc(F)c(F)c(F)c2)ccc1Cl` [Example 225] gave a pEC50 of less than 6.40.
`O=C(Nc1cc(F)c(F)c(F)c1)c1ccc(Cl)c(S(=O)(=O)[C@H]2C3CC[C@H]2C[C@](O)(/C=N/OCc2ccc(-c4ccccc4)cc2)C3)c1` [Example 224] was tested, and the pEC50 was 6.40 to 7.00.
With `O=C(Nc1cc(F)c(F)c(F)c1)c1ccc(Cl)c(S(=O)(=O)C2C[C@@H](O)[C@@H](O)C2)c1` (some centres unmarked) [Example 85] the pEC50 was 6.40 to 7.00.
With `CC(C)[C@H](NC(=O)OC(C)(C)C)C(=O)OC[C@]1(O)CC2CC[C@@H](C1)[C@H]2S(=O)(=O)c1cc(C(=O)Nc2cc(F)c(F)c(F)c2)ccc1Cl` [Example 265] the pEC50 was 6.40 to 7.00.
With `O=C(Nc1cc(F)c(F)c(F)c1)c1ccc(Cl)c(S(=O)(=O)[C@H]2C3CC[C@H]2C[C@](O)(COCC2CO2)C3)c1` (some centres unmarked) [Example 328] the pEC50 was greater than 7.00.
For `CC(C)(C)OC(=O)N[C@H]1CC[C@H](S(=O)(=O)c2cc(C(=O)Nc3cc(F)c(F)c(F)c3)ccc2Cl)CC1` [Example 54], the pEC50 was 6.40 to 7.00.
With `CCCS(=O)(=O)c1cc(C(=O)Nc2cc(F)c(F)c(F)c2)ccc1Cl` [Example 15] the pEC50 was 6.40 to 7.00.
With `COC(=O)NC[C@@H]1CC2CC[C@@H](C1)[C@H]2S(=O)(=O)c1cc(C(=O)Nc2cc(F)c(F)c(F)c2)ccc1Cl` [Example 334] the pEC50 was greater than 7.00.
`CN(C)c1ccc(C(=O)Nc2cc(F)c(F)c(F)c2)cc1S(=O)(=O)[C@H]1C2CC[C@H]1C[C@](O)(COS(C)(=O)=O)C2` [Example 144] was tested, and the pEC50 was less than 6.40.
With `C[C@H](N)C(=O)OC[C@]1(O)CC2CC[C@@H](C1)[C@H]2S(=O)(=O)c1cc(C(=O)Nc2cc(F)c(F)c(F)c2)ccc1Cl` [Example 248] the pEC50 was greater than 7.00.
For `C[C@H](N)C(=O)NC[C@]1(O)C2CCC1C[C@@H](S(=O)(=O)c1cc(C(=O)Nc3cc(F)c(F)c(F)c3)ccc1Cl)C2` [Example 351], the pEC50 was 6.40 to 7.00.
In the case of `CCOC(OCC)[C@]1(O)CC2CC[C@@H](C1)[C@H]2S(=O)(=O)c1cc(C(=O)Nc2cc(F)c(F)c(F)c2)ccc1Cl` [Example 197], the pEC50 was 6.40 to 7.00.
`CC(=O)OCC1=CC2CCC(C1)[C@@H]2S(=O)(=O)c1cc(C(=O)Nc2cc(F)c(F)c(F)c2)ccc1Cl` (some centres unmarked) [Example 140] gave a pEC50 of 6.40 to 7.00.
In the case of `O=C(Nc1cc(F)c(F)c(F)c1)c1ccc(Cl)c(S(=O)(=O)[C@H]2C3CC[C@H]2C[C@](O)(/C=N/OCc2ccccc2F)C3)c1` [Example 244], the pEC50 was greater than 7.00.
Compound `O=C(Nc1cc(F)c(F)c(F)c1)c1ccc(Cl)c(S(=O)(=O)[C@H]2C3CC[C@H]2C[C@](O)(Cn2ccnc2)C3)c1` [Example 314] has a pEC50 greater than 7.00.
Compound `C=CCC1(S(=O)(=O)c2cc(C(=O)Nc3cc(F)c(F)c(F)c3)ccc2Cl)CCCCC1` [Example 81] has a pEC50 of less than 6.40.
`C#C[C@]1(O)CC2CC[C@@H](C1)[C@H]2S(=O)(=O)c1cc(C(=O)Nc2cc(F)c(F)c(F)c2)ccc1Cl` [Example 162] showed a pEC50 greater than 7.00.
Work on `CS(=O)(=O)NC(=O)O[C@H]1CC[C@H](S(=O)(=O)c2cc(C(=O)Nc3cc(F)c(F)c(F)c3)ccc2Cl)CC1` [Example 53] yielded a pEC50 of less than 6.40.
`O=C(Nc1cc(F)c(F)c(F)c1)c1ccc(Cl)c(S(=O)(=O)[C@H]2CC3CCC(C2)[C@@]3(O)CO)c1` [Example 223] gave a pEC50 greater than 7.00.
Compound `O=C(Nc1ccc(F)c(F)c1)c1ccc(Cl)c(S(=O)(=O)[C@H]2CC3CCC(C2)[C@H]3O)c1` [Example 354] has a pEC50 of 6.40 to 7.00.
With `[N-]=[N+]=Nc1ccc(C(=O)Nc2cc(F)c(F)c(F)c2)cc1S(=O)(=O)[C@H]1C2CC[C@H]1C[C@]1(CO1)C2` [Example 145] the pEC50 was 6.40 to 7.00.
`C[C@H](NC(=O)OC(C)(C)C)C(=O)NC[C@]1(O)C2CCC1C[C@@H](S(=O)(=O)c1cc(C(=O)Nc3cc(F)c(F)c(F)c3)ccc1Cl)C2` [Example 349] gave a pEC50 greater than 7.00.
`O=C(Nc1cc(F)c(F)c(F)c1)c1ccc(Cl)c(S(=O)(=O)[C@H]2CC3CCC(C2)[C@]3(O)CC(O)CO)c1` (some centres unmarked) [Example 361] gave a pEC50 greater than 7.00.
For `O=C1CC2CC[C@@H](C1)[C@H]2CS(=O)(=O)c1cc(C(=O)Nc2cc(F)c(F)c(F)c2)ccc1Cl` [Example 180], the pEC50 was greater than 7.00.
`O=C(Nc1cc(F)c(F)c(F)c1)c1ccc(Cl)c(S(=O)(=O)C[C@@H]2C3CC[C@H]2C[C@H](O)C3)c1` [Example 193] was tested, and the pEC50 was 6.40 to 7.00.
In the case of `CC(C)[C@H](N)C(=O)OC[C@]1(O)CC2CC[C@@H](C1)[C@H]2S(=O)(=O)c1cc(C(=O)Nc2cc(F)c(F)c(F)c2)ccc1Cl` [Example 254], the pEC50 was greater than 7.00.
With `N#CC1CON(Cc2ccccc2)C1[C@]1(O)CC2CC[C@@H](C1)[C@H]2S(=O)(=O)c1cc(C(=O)Nc2cc(F)c(F)c(F)c2)ccc1Cl` (some centres unmarked) [Example 209] the pEC50 was less than 6.40.
`O=C(Nc1cc(F)c(F)c(F)c1)c1ccc(Cl)c(S(=O)(=O)[C@H]2C[C@@H](O)C2)c1` [Example 34] showed a pEC50 of less than 6.40.
With `CC(C)(C)OC(=O)N1CCC[C@H]1C(=O)NC[C@]1(O)C2CCC1C[C@@H](S(=O)(=O)c1cc(C(=O)Nc3cc(F)c(F)c(F)c3)ccc1Cl)C2` [Example 365] the pEC50 was greater than 7.00.
Compound `C[C@H](NC(=O)OC(C)(C)C)C(=O)O[C@H]1CC[C@H](S(=O)(=O)c2cc(C(=O)Nc3cc(F)c(F)c(F)c3)ccc2Cl)CC1` [Example 5] has a pEC50 of 6.40 to 7.00.
For `O=C(Nc1cc(F)c(F)c(F)c1)c1ccc(Cl)c(S(=O)(=O)[C@H]2C3CC[C@H]2C[C@@](O)(CO)C3)c1` [Example 164], the pEC50 was greater than 7.00.
`O=C(Nc1cc(F)c(F)c(F)c1)c1ccc(Cl)c(S(=O)(=O)[C@H]2CC3CCC(C2)[C@@H]3O)c1` [Example 192] gave a pEC50 of 6.40 to 7.00.
Work on `O=C(Nc1cc(F)c(F)c(F)c1)c1ccc(Cl)c(S(=O)(=O)C[C@@H]2CC3CC2[C@H](O)[C@@H]3O)c1` (some centres unmarked) [Example 242] yielded a pEC50 of 6.40 to 7.00.
`N[C@H]1CC[C@H](S(=O)(=O)c2cc(C(=O)Nc3cc(F)c(F)c(F)c3)ccc2Cl)CC1` [Example 72] was tested, and the pEC50 was less than 6.40.
In the case of `O=C(Nc1cc(F)c(F)c(-n2cccn2)c1)c1ccc(Cl)c(S(=O)(=O)[C@H]2C3CC[C@H]2C[C@](O)(Cn2cccn2)C3)c1` [Example 333], the pEC50 was less than 6.40.
`O=C(Nc1cc(F)c(F)c(F)c1)c1ccc(Cl)c(S(=O)(=O)C[C@H]2C[C@@H](O)C2)c1` [Example 105] gave a pEC50 of 6.40 to 7.00.
For `O=C(Nc1cc(F)c(F)c(F)c1)c1ccc(Cl)c(S(=O)(=O)C2C[C@@H]3O[C@H](C2)[C@@H](O)[C@H]3O)c1` (some centres unmarked) [Example 355], the pEC50 was less than 6.40.
In the case of `CC1(C)O[C@@H]2[C@@H](CSc3cc(C(=O)Nc4cc(F)c(F)c(F)c4)ccc3Cl)OC(=O)[C@]2(C)O1` [Example 90], the pEC50 was less than 6.40.
In the case of `O=C(Nc1cc(F)c(F)c(F)c1)c1ccc(Cl)c(S(=O)(=O)[C@H]2CC[C@@](O)(CO)CC2)c1` [Example 110], the pEC50 was 6.40 to 7.00.
With `O=C(Nc1cc(F)c(F)c(F)c1)c1ccc(Cl)c(S(=O)(=O)CC2CC3CCC2C(O)C3O)c1` (centres unmarked) [Example 243] the pEC50 was greater than 7.00.
`O=C(Nc1cc(F)c(F)c(F)c1)c1ccc(Cl)c(S(=O)(=O)[C@@H]2CCC[C@H](O)C2)c1` (racemic) [Example 58] was tested, and the pEC50 was less than 6.40.
Work on `O=C(Nc1cc(F)c(F)c(F)c1)c1ccc(Cl)c(S(=O)(=O)C(CO)CC2CCOCC2)c1` (centres unmarked) [Example 166] yielded a pEC50 of 6.40 to 7.00.
`O=C(Nc1cc(F)c(F)c(F)c1)c1ccc(Cl)c(S(=O)(=O)C2C3CCCC2CC(O)(CO)C3)c1` (centres unmarked) [Example 133] was tested, and the pEC50 was 6.40 to 7.00.
For `O=C(Nc1cc(F)c(F)c(F)c1)c1ccc(Cl)c([S+]([O-])C2CCC=CCC2)c1` (centres unmarked) [Example 64], the pEC50 was less than 6.40.
`O=C[C@]1(O)CC2CC[C@@H](C1)[C@H]2S(=O)(=O)c1cc(C(=O)Nc2cc(F)c(F)c(F)c2)ccc1Cl` [Example 129] was tested, and the pEC50 was greater than 7.00.
With `O=C(Nc1cccnc1)N[C@@H]1C2CC[C@H]1C[C@H](S(=O)(=O)c1cc(C(=O)Nc3cc(F)c(F)c(F)c3)ccc1Cl)C2` [Example 198] the pEC50 was greater than 7.00.
`O=C(Nc1cc(F)c(F)c(F)c1)c1ccc(Cl)c(S(=O)(=O)C2CCC3(CC2)OCCO3)c1` [Example 1] showed a pEC50 of 6.40 to 7.00.
Compound `C=C1CCC(S(=O)(=O)c2cc(C(=O)Nc3cc(F)c(F)c(F)c3)ccc2Cl)CC1` [Example 104] has a pEC50 of 6.40 to 7.00.
With `O=C(Nc1ccc(F)c(Cl)c1)c1ccc(Cl)c(S(=O)(=O)[C@H]2CC[C@H](O)CC2)c1` [Example 52] the pEC50 was 6.40 to 7.00.
Work on `O=C(Nc1cc(F)c(F)c(F)c1)c1ccc(Cl)c(S(=O)(=O)[C@H]2C3CC[C@H]2C[C@](O)(COCCN2CCOCC2)C3)c1` [Example 325] yielded a pEC50 greater than 7.00.
`O=C(Nc1ccc(F)cc1)c1ccc(Cl)c(S(=O)(=O)[C@H]2CC[C@H](O)CC2)c1` [Example 66] gave a pEC50 of less than 6.40.
`O=C(Nc1cc(F)c(F)c(F)c1)c1ccc(Cl)c(S(=O)(=O)[C@@H]2C3CC[C@H]2C[C@](O)(CO)C3)c1` [Example 137] gave a pEC50 of 6.40 to 7.00.
In the case of `CN(C)c1ccc(C(=O)Nc2cc(F)c(F)c(F)c2)cc1S(=O)(=O)[C@H]1C2CC[C@H]1C[C@](O)(CO)C2` [Example 147], the pEC50 was less than 6.40.
In the case of `O=C(Nc1cc(F)c(F)c(F)c1)c1ccc(Cl)c(SCc2ccccn2)c1` [Example 32], the pEC50 was less than 6.40.
`C[C@]1(O)CC[C@H](S(=O)(=O)c2cc(C(=O)Nc3cc(F)c(F)c(F)c3)ccc2Cl)CC1` [Example 23] gave a pEC50 of 6.40 to 7.00.
`O=C(Nc1cc(F)c(F)c(F)c1)c1ccc(Cl)c(S(=O)(=O)[C@H]2C3CC[C@H]2[C@@H](CO)C(=O)C3)c1` [Example 163] was tested, and the pEC50 was 6.40 to 7.00.
With `O=C(Nc1cc(F)c(F)c(F)c1)c1ccc(Cl)c(S(=O)(=O)[C@H]2C3CC[C@H]2C[C@](O)(COCc2cccnc2)C3)c1` [Example 187] the pEC50 was greater than 7.00.
